Results as given in patent US20070086956A1, “Method for accelerating the rate of mucociliary clearance” (BAYER AKTIENGESELLSCHAFT, priority 1998, published 2007).

Columns and labels:
[1] = target: T1, human neutrophil elastase (Homo sapiens, UniProt P08246); assay: Inhibition of human neutrophil elastase, Ki (Dixon plots); type: biochemical; conditions: Table 4A; elastase
T1 sequence (P08246 30-267): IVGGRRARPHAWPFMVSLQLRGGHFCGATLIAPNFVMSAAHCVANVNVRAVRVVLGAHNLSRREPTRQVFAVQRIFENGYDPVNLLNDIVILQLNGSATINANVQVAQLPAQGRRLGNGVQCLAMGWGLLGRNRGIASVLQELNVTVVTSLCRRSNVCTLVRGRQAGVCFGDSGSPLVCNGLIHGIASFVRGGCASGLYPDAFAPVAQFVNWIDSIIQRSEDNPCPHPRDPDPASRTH
Description: […] Ki values were determined from Dixon plots of the form 1/V versus performed at two different substrate concentrations (Dixon et al., 1979).

[2] = target: bovine pancreatic kallikrein; assay: Inhibition of bovine pancreatic kallikrein, Ki; type: biochemical; conditions: Table 4A; Bovine Pancreatic Kallikrein (92.0 pM)
Description: After 5 min. at 37° C., 15 μl of 2 mM GPK-AMC was added and the change in fluorescence (as above) was monitored. […] After 5 min. incubation at 37° C., 25 μl of 20 mM GPK-AMC was added and the change in fluorescence monitored. […] After 5 min. at 37° C. 15 μl of 20 mM PFR-AMC was added and the change in fluorescence monitored.

[3] = Isoelectric point by isoelectric focusing; type: physicochemical
Description: After staining, the migration distance from the cathodic edge of the gel to the different protein bands was measured. The pI of each unknown was determined by using a standard curve generated by a plot of the migration distance of standards versus the corresponding pI's. […] (Tenstad et al., 1994, Acta Physiol. Scand. 152: 33-50).

**Q.** Which results are given for CC[C@H](C)[C@H](N)C(=O)N[C@@H](Cc1c[nH]cn1)C(=O)N[C@@H](CC(=O)O)C(=O)N[C@@H](Cc1ccccc1)C(=O)N[C@H]1CSSC[C@@H](C(=O)N[C@@H](C)C(=O)N[C@H](C(=O)N[C@H](C(=O)O)C(C)C)[C@@H](C)O)NC(=O)[C@H](CCCCN)NC(=O)[C@H](CCCCN)NC(=O)[C@H](CC(C)C)NC(=O)[C@@H]2CSSC[C@@H]3NC(=O)[C@H](CO)NC(=O)CNC(=O)[C@H](CC(=O)O)NC(=O)[C@H]([C@@H](C)O)NC(=O)[C@H](C(C)C)NC(=O)[C@H](CC(N)=O)NC(=O)[C@H](Cc4ccc(O)cc4)NC(=O)[C@H](Cc4c[nH]c5ccccc45)NC(=O)[C@H](Cc4c[nH]c5ccccc45)NC(=O)[C@H](CCCNC(=N)N)NC(=O)[C@@H]4CCCN4C(=O)[C@H](CCSC)NC(=O)[C@H](CO)NC(=O)[C@H](C)NC(=O)[C@H](CCCNC(=N)N)NC(=O)[C@H](CSSC[C@H](NC(=O)CNC(=O)CNC(=O)[C@H](Cc4ccc(O)cc4)NC(=O)[C@H](C(C)C)NC(=O)[C@H](Cc4ccccc4)NC(=O)[C@H](CC(C)C)NC(=O)[C@H](CCC(N)=O)NC3=O)C(=O)N[C@@H](CC(=O)O)C(=O)NCC(=O)N[C@@H](CC(N)=O)C(=O)N[C@@H](CO)C(=O)N[C@@H](CC(N)=O)C(=O)N[C@@H](CC(N)=O)C(=O)N[C@@H](Cc3ccc(O)cc3)C(=O)N[C@@H](CC(C)C)C(=O)N[C@@H]([C@@H](C)O)C(=O)N[C@@H](CCCCN)C(=O)N[C@@H](CCC(=O)O)C(=O)N[C@@H](CCC(=O)O)C(=O)N2)NC(=O)[C@H](CCCNC(=N)N)NC(=O)CNC(=O)[C@H](C(C)C)NC(=O)[C@H](C(C)C)NC(=O)[C@H](CCCCN)NC(=O)[C@H](CO)NC(=O)[C@H](C(C)C)NC(=O)[C@H](CC(C)C)NC1=O [bikunin (7-64)]?
**A.** Ki [1]: > 100000 pM; Ki [2]: 400 pM; pI ([3]; first preparation of bikunin (7-64) (possibly not completely deprotected), migrated to the cathodic edge of the gel (pH 9.5)): much higher than the predicted value; pI ([3]; refolded purified protein, Ampholine PAGplate (pH 3.5 to 9.5)): 8.85
